# Reference: US20110136163A1, “Method of Toxicological Assessment” (priority 2008, published 2011)
# Entries after “also recorded” stand apart in the source; their conditions may differ. *1 amine or outer side, *2 acyl side, *3 side chain or, on linkers, in order; H or OH if unused. Where a SMILES comes first, the peptide text is derived from it. Bridges are numbered along the chain shown (N, C = ends). [ ]: non-standard residue; d: D form. Adda = CO[C@@H](Cc1ccccc1)[C@@H](C)/C=C(C)/C=C/[C@H](N[*:1])[C@H](C)C(=O)[*:2]; dAsp(3S-Me) = C[C@H](C(=O)[*:3])[C@@H](N[*:1])C(=O)[*:2]; d(γGlu) = O=C(O)[C@@H](CCC(=O)[*:2])N[*:1]; NMeDha = C=C(NC)C(=O)O
# Assays:
# HepG2 cells [1] = experiment: Western blot of protein phosphorylation (anti-phospho-serine) in HepG2 cells; type: cell-based
# Procedure: FIG. 2. Western blot analysis of HepG2 cells treated with MCLR in the presence of EndoPorter for 24 h, primary antibodies used were anti-phospho-serine. Blot analysis show dependence of protein phosphorylation on MCLR concentration.
# A number of other markers of cellular function were also investigated for their alterations in response to MCLR treatment of cells in the presence of transport reagent. […] Metabolic parameters such as intracellular levels of ATP and NAD(P)H were seen unchanged.
# HepG2 cells [2] = experiment: O2 consumption toxicity assay in HepG2 cells, with and without transport reagent; type: cell-based
# Primary rat hepatocytes = type: cell-based
# [3] = tested on: isolated rat liver mitochondria; type: biochemical
# Jurkat cells [4] = experiment: O2 consumption toxicity assay in Jurkat cells, with and without transport reagent; type: cell-based
# cells = type: cell-based
# Jurkat cells [5] = experiment: ATP content in Jurkat cells, with and without transport reagent; type: cell-based
# Description: A number of other transport reagents, toxicants, cell models and parameters of cellular function were examined, using the general assay format described in Example 1.
compound,measurement,setting,value
"C=C1C(=O)N[C@H](C)C(=O)N[C@@H](CC(C)C)C(=O)N[C@@H](C(=O)O)[C@H](C)C(=O)N[C@@H](CCCNC(=N)N)C(=O)N[C@@H](/C=C/C(C)=C/[C@H](C)[C@H](Cc2ccccc2)OC)[C@H](C)C(=O)N[C@@H](C(=O)O)CCC(=O)N1C [MCLR, Microcystin-LR] (R[Adda][d(γGlu)][NMeDha][dA]L[dAsp(3S-Me)]-OH; lactam N-7)",Protein phosphorylation/dephosphorylation in Western blots,HepG2 cells [1],altered protein phosphorylation/dephosphorylation
same,Concentration above which significant effects on O2 consumption were seen,HepG2 cells [2],above 0.1 nM
same,Peak of bell-shape dose response of O2 consumption,HepG2 cells [2],around 0.5 nM
same,Concentration at which parameters of cellular function were affected,Primary rat hepatocytes,≥ 0.5 nM
same,"O2 consumption, observed effect",Primary rat hepatocytes,dose-dependent decreases in oxygen consumption
same,IC50,"Primary rat hepatocytes; read-out: O2 consumption, IC50",2.74 nM
same,Effect on O2 consumption of isolated mitochondria,[3],uncoupling effect
same,Concentration above which significant effects on O2 consumption were seen,Jurkat cells [4],above 0.1 nM
same,"O2 consumption / toxicity, observed effect",Jurkat cells [4],strong toxicity; also recorded: respiration decreased
same,"O2 consumption, observed effect",Jurkat cells [4],no detectable toxicity; also recorded: No effect at 10 μM
same,Intracellular level of ATP,cells,unchanged
same,Intracellular level of NAD(P)H,cells,unchanged
same,"ATP content, observed effect",Jurkat cells [5],No effect at 10 μM; also recorded: Dose dependent decrease
Aflatoxin B1,"O2 consumption / toxicity, observed effect",Jurkat cells [4],increased toxicity
